The results in this text go back to BindingDB's records for doi:10.7270/Q2HM5725 (Burnham Center For Chemical Genomics, 2012).

The target of the test is Neuropilin-1 (Homo sapiens, UniProt O14786).

Bounds are passed on as bounds.

Sequence of Neuropilin-1 (O14786 whole entry): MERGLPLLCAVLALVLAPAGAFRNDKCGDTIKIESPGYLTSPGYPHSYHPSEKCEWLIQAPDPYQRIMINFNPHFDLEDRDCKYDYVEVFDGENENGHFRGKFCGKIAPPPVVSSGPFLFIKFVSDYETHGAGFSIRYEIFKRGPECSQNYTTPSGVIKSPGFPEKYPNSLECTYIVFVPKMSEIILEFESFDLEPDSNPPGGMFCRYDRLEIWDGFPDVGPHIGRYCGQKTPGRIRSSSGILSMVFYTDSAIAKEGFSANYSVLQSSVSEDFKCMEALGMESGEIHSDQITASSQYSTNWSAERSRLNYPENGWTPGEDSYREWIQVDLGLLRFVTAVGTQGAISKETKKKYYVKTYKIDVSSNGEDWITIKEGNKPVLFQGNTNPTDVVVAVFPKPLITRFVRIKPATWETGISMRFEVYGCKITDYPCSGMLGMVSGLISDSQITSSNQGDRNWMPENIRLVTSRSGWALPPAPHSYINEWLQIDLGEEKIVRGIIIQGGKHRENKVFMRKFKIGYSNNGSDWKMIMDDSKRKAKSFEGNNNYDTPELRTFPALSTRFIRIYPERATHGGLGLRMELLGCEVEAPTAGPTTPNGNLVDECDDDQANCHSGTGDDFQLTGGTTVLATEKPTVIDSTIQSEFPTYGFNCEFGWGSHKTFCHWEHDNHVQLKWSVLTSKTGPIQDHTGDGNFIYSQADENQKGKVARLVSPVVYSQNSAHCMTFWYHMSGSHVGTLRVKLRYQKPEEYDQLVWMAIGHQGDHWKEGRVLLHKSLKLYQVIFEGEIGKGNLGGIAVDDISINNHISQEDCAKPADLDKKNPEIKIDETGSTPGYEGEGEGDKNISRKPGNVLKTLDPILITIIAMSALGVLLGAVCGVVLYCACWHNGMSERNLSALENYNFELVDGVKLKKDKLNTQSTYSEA

Usually IC50 stands for the midpoint of a concentration-inhibition curve. Read a low IC50 as greater potency. Consider `O=C(Cc1ncnc2c1ncn2C1OC(CO)C(O)C1O)c1ccccc1` (configuration not stated), for which the concentration for half-maximal inhibition (IC50) is over 95 µM.
Then `Cc1ccc(N=CC(S(=O)(=O)c2ccccc2)S(=O)(=O)c2ccccc2)cc1`, with over 95 µM; and `COC(=O)C1=C(C)N=C(C)C(C(=O)OC)C1C(=O)OC(C)C(=O)c1ccccc1` (configuration not stated) [2,6-dimethyl-1,4-dihydropyridine-3,4,5-tricarboxylic acid O3,O5-dimethyl ester O4-(1-oxo-1-phenylpropan-2-yl) ester], with over 95 µM.
As for `C=CCN1C(=O)C2(c3ccccc3OC(=N)C2C(=O)OCC)c2c1c1ccccc1oc2=O` (configuration not stated) [2-amino-2',4'-dioxo-1'-prop-2-enyl-3-spiro[1-benzopyran-4,3'-[1]benzopyrano[4,3-b]pyrrole]carboxylic acid ethyl ester], the IC50 is over 95 µM.
Then `CCOc1ccc(-n2c(O)cc(N3CCN(c4ccc(Cl)cc4)CC3)c2O)cc1` [3-[4-(4-Chloro-phenyl)-piperazin-1-yl]-1-(4-ethoxy-phenyl)-pyrrolidine-2,5-dione], with over 95 µM; and `CCOC(=O)C1=C(C)N=C2CCCC(=O)C2C1c1cn(Cc2ccc(Cl)cc2Cl)nc1-c1ccccc1` (configuration not stated) [4-[1-[(2,4-dichlorophenyl)methyl]-3-phenyl-4-pyrazolyl]-2-methyl-5-oxo-4,6,7,8-tetrahydro-1H-quinoline-3-carboxylic acid ethyl ester], with over 95 µM; and `COc1ccc2c(c1)N(C)/C(=C1/S/C(=N\Cc3ccccc3)N(c3ccccc3)C1=O)S2` [(5Z)-5-(5-methoxy-3-methyl-1,3-benzothiazol-2-ylidene)-3-phenyl-2-(phenylmethyl)imino-1,3-thiazolidin-4-one], with over 95 µM.
Then `COc1cccc(N2[C@@H](CC(C)=O)c3ccc(C=CC(C)=O)cc3S2(=O)=O)c1` [(E)-4-[(3S)-2-(3-methoxyphenyl)-1,1-bis(oxidanylidene)-3-(2-oxidanylidenepropyl)-3H-1,2-benzothiazol-6-yl]but-3-en-2-one], with over 95 µM; and `C=CCOc1ccc(C2C(C(=O)c3c(C)[nH]c(C(=O)OC)c3C)C(=O)C(=O)N2CCN(C)C)cc1` (configuration not stated) [MLS000081294], with over 95 µM; and `Cn1cccc1C1Nc2ccccc2N=C2CC(C)(C)CC(=O)C21` (configuration not stated) [MLS000533228], with over 95 µM.
In turn, `CCC(NCCc1ccccc1)=C1C(=O)NC(=O)N(C2CCCCC2)C1=O` [MLS000557927] displayed a half-maximal inhibitory concentration (IC50) of over 95 µM.
For `Cc1ccc2c(c1)=C(c1ccncc1)NN=C(c1ccc(F)cc1)N=2` [MLS000692744] the value was over 95 µM.
For the compound `CCC1=C(OC(=O)N(CC)CC)N2C(=O)O/C(=N\CC(=O)OC)[C@]2(Cc2ccccc2)[C@H]2C1=CC[C@H]1C(=O)N(CC(=O)OC)C(=O)[C@H]12` [MLS000877797], the half-inhibitory concentration (IC50) is over 95 µM.
Then `CC(C)C1=NC(=O)NC2CCCCC12` (configuration not stated) [SMR000060291], with over 95 µM.
Then `Cc1cc2c(cc1C)NC(c1nc3ccccc3[nH]1)C1C(=O)CC(C)(C)CC1=N2` (configuration not stated) [SMR000120514], with over 95 µM.
As for `COc1ccc(-n2c(O)cc(SCCc3nc4ccccc4[nH]3)c2O)cc1` [SMR000200354], the half-inhibitory concentration (IC50) was over 95 µM.
For `CC1(c2ccccc2)CC(C)(C)N2C(=O)/C(=C3/NC(=S)NC3=O)c3cccc1c32` (configuration not stated) [SMR000221518] the value was over 95 µM; for `Cc1ccc(CN=Nc2nc3ccccc3[nH]2)s1` [SMR000261490], over 95 µM; for `CCC1=C(OC(=O)N(CC)CC)N2C(=O)O/C(=N\CC(=O)OC)[C@]2(C)[C@H]2C1=CC[C@H]1C(=O)N(CC)C(=O)[C@H]12` [SMR000440357], over 95 µM.
`CCC1=C(OC(=O)N(CC)CC)N2C(=O)O/C(=N\CCOC)[C@]2(Cc2ccccc2)[C@H]2C1=CC[C@H]1C(=O)N(CC(=O)OC)C(=O)[C@H]12` [SMR000440375] showed a half-inhibitory concentration (IC50) of over 95 µM.
For `CCC1=C(OC(=O)N(CC)CC)N2C(=O)O/C(=N\CC3CC3)[C@]2(Cc2ccccc2)[C@H]2C1=CC[C@H]1C(=O)N(C)C(=O)[C@H]12` [SMR000440396] the value was over 95 µM; for `CCOC(=O)C1C(=O)C(=O)N(c2ccccc2)C1c1cccc([N+](=O)[O-])c1` (configuration not stated) [ethyl 2-(3-nitrophenyl)-4-oxidanyl-5-oxidanylidene-1-phenyl-2H-pyrrole-3-carboxylate], over 95 µM.
